# ChEMBL document CHEMBL4052651, “Searching for novel N1-substituted benzimidazol-2-ones as non-nucleoside HIV-1 RT inhibitors” (Bioorg Med Chem, 2017)
# Columns and labels:
# [1] = target: Human immunodeficiency virus type 1 reverse transcriptase (Human immunodeficiency virus 1, UniProt Q72547, G190A); assay: Inhibition of HIV-1 reverse transcriptase G190A mutant assessed as reduction in dTTP incorporation using poly(rA)/oligo(dT)16 as template/primer after 40 mins by PicoGreen dye based spectrofluorometric analysis
# [2] = target: Human immunodeficiency virus type 1 reverse transcriptase (Human immunodeficiency virus 1, UniProt Q72547, Y181C); assay: Inhibition of HIV-1 reverse transcriptase Y181C mutant assessed as reduction in dTTP incorporation using poly(rA)/oligo(dT)16 as template/primer after 40 mins by PicoGreen dye based spectrofluorometric analysis
# [3] = target: Human immunodeficiency virus type 1 reverse transcriptase (Human immunodeficiency virus 1, UniProt Q72547, L100I); assay: Inhibition of HIV-1 reverse transcriptase L100I mutant assessed as reduction in dTTP incorporation using poly(rA)/oligo(dT)16 as template/primer after 40 mins by PicoGreen dye based spectrofluorometric analysis
# [4] = target: Human immunodeficiency virus type 1 reverse transcriptase (Human immunodeficiency virus 1, UniProt Q72547); assay: Inhibition of recombinant wild-type HIV-1 reverse transcriptase p66/p51 RNA-dependent DNA polymerase activity expressed in Escherichia coli JM109 assessed as reduction in dTTP incorporation using poly(rA)/oligo(dT)16 as template/primer after 40 mins by PicoGreen dye based spectrofluorometric analysis
# [5] = system: Human immunodeficiency virus 1; assay: Antiviral activity against HIV1 3B infected in human MT4 cells assessed as inhibition of virus-induced cytopathic effect after 5 days by MTT assay; format: functional, cell-based; conditions: Human immunodeficiency virus 1, 3B, MT4, 120 h
# [6] = target: Human immunodeficiency virus type 1 reverse transcriptase (Human immunodeficiency virus 1, UniProt Q72547, Y188L); assay: Inhibition of HIV-1 reverse transcriptase Y188L mutant assessed as reduction in dTTP incorporation using poly(rA)/oligo(dT)16 as template/primer after 40 mins by PicoGreen dye based spectrofluorometric analysis
# [7] = target: Human immunodeficiency virus type 1 reverse transcriptase (Human immunodeficiency virus 1, UniProt Q72547, E138K); assay: Inhibition of HIV-1 reverse transcriptase E138K mutant assessed as reduction in dTTP incorporation using poly(rA)/oligo(dT)16 as template/primer after 40 mins by PicoGreen dye based spectrofluorometric analysis
# [8] = Cytotoxicity against human MT4 cells assessed as reduction in cell viability after 5 days by MTT assay; format: cell-based
# [9] = target: Human immunodeficiency virus type 1 reverse transcriptase (Human immunodeficiency virus 1, UniProt Q72547, K103N); assay: Inhibition of HIV-1 reverse transcriptase K103N mutant assessed as reduction in dTTP incorporation using poly(rA)/oligo(dT)16 as template/primer after 40 mins by PicoGreen dye based spectrofluorometric analysis
# [10] = target: Human immunodeficiency virus type 1 reverse transcriptase (Human immunodeficiency virus 1, UniProt Q72547, V106A); assay: Inhibition of HIV-1 reverse transcriptase V106A mutant assessed as reduction in dTTP incorporation using poly(rA)/oligo(dT)16 as template/primer after 40 mins by PicoGreen dye based spectrofluorometric analysis
# [11] = Selectivity index, ratio of CC50 for human MT4 cells to EC50 for HIV1 3B infected in human MT4 cells; format: toxicity, cell-based; conditions: HIV1 3B infected MT4 cells, read-out: Ratio CC50/EC50
Structure (SMILES),IC50 [1] [µM],IC50 [2] [µM],IC50 [3] [µM],IC50 [4] [µM],EC50 [5] [nM],IC50 [6] [µM],IC50 [7] [µM],CC50 at 120 h [8] [µM],IC50 [9] [µM],IC50 [10] [µM],selectivity ratio [11]
O=c1[nH]c2ccc(Cl)cc2n1S(=O)(=O)Cc1ccc(Cl)cc1,> 335,> 335,92,18,5060,> 335,≥ 285,77,> 335,15,15
O=c1[nH]c2ccc(Cl)cc2n1S(=O)(=O)Cc1ccccc1,250,≥ 273,90,17,830,> 371,98,155,> 371,9.38,187
Cc1cccc(CCS(=O)(=O)n2c(=O)[nH]c3ccc(Cl)cc32)c1,90,80,65,39,> 31000,219,88,31,119,74,< 1
O=c1[nH]c2ccc(Cl)cc2n1S(=O)(=O)Cc1cccc(Cl)c1,260,> 335,29,6,1140,> 335,64,152,> 335,6.6,134
Cc1cccc(CS(=O)(=O)n2c(=O)[nH]c3ccc(Cl)cc32)c1,132,98,3,0.79,80,> 356,7.6,110,105,0.9,1380
Cc1ccc(CCS(=O)(=O)n2c(=O)[nH]c3ccc(Cl)cc32)cc1,89,179,311,218,> 160000,249,160,161,> 342,95,< 1
O=c1[nH]c2ccc(Cl)cc2n1S(=O)(=O)CCc1ccc(Cl)cc1,69,107,180,95,> 91000,227,108,91,231,69,< 1
Cc1ccnc2c1NC(=O)c1cccnc1N2C1CC1 [NEVIRAPINE],,,,,180,,,> 15,,,
O=c1[nH]c2ccc(Cl)cc2n1S(=O)(=O)CCc1ccccc1,> 356,> 356,> 356,76,> 30000,> 356,> 356,30,> 356,> 356,< 1
O=C1Nc2ccc(Cl)cc2[C@@](C#CC2CC2)(C(F)(F)F)O1 [EFAVIRENZ],,,,,,,,> 6.33,,,
O=c1[nH]c2ccc(Cl)cc2n1S(=O)(=O)CCc1ccccc1Cl,280,176,214,116,> 100000,> 323,≥ 323,100,> 323,137,< 1
O=c1[nH]c2ccc(Cl)cc2n1S(=O)(=O)CCc1cccc(Cl)c1,258,74,≥ 285,131,> 64000,> 323,> 323,63,> 323,45,< 1
Cc1ccc(CS(=O)(=O)n2c(=O)[nH]c3ccc(Cl)cc32)cc1,≥ 310,183,55,2.25,1930,280,63,93,280,6.6,48
Cc1ccccc1CCS(=O)(=O)n1c(=O)[nH]c2ccc(Cl)cc21,54,32,59,29,> 32000,165,49,32,89,44,< 1
O=c1[nH]c2ccc(Cl)cc2n1S(=O)(=O)Cc1ccccc1Cl,238,> 335,7.13,1.3,190,> 335,12,52,> 335,1.8,271
Cc1ccccc1CS(=O)(=O)n1c(=O)[nH]c2ccc(Cl)cc21,> 356,> 356,≥ 64,21,10000,> 356,> 356,238,> 356,> 356,24
